The values that follow come from patent publication US20260116921A1, “PEPTIDE INHIBITORS OF INTERLEUKIN-23 RECEPTOR AND THEIR USE TO TREAT INFLAMMATORY DISEASES” (priority 2018, published 2026).

Molecules are shown by their SMILES. Like-named read-outs stand apart in the source and are kept apart here. Numbered stars: 1 amine (or outer) side, 2 acyl side, 3 side chain; on linkers, the order of the positions; unused ones are H or OH. Bridge positions count the residues as written; N and C are the ends. Square brackets hold non-standard residues; d marks the D form. Peptide text beside a SMILES is read from it. X4 = CC(C)c1cccc2c(C[C@H](N[*:1])C(=O)[*:2])c[nH]c12; Trp(7-Me) = Cc1cccc2c(C[C@H](N)C(=O)O)c[nH]c12; 2Nal = N[C@@H](Cc1ccc2ccccc2c1)C(=O)O; AEF = NCCOc1ccc(C[C@H](N)C(=O)O)cc1; Cit = NC(=O)NCCC[C@H](N)C(=O)O; Pen = CC(C)(S)[C@H](N)C(=O)O; αMeK = C[C@](N)(CCCCN)C(=O)O; Aib = CC(C)(N)C(=O)O; βAla = NCCC(=O)O

For series [1], the target named is T1, IL-23R (Homo sapiens, UniProt Q5VWK5).
T1 sequence (Q5VWK5 24-629): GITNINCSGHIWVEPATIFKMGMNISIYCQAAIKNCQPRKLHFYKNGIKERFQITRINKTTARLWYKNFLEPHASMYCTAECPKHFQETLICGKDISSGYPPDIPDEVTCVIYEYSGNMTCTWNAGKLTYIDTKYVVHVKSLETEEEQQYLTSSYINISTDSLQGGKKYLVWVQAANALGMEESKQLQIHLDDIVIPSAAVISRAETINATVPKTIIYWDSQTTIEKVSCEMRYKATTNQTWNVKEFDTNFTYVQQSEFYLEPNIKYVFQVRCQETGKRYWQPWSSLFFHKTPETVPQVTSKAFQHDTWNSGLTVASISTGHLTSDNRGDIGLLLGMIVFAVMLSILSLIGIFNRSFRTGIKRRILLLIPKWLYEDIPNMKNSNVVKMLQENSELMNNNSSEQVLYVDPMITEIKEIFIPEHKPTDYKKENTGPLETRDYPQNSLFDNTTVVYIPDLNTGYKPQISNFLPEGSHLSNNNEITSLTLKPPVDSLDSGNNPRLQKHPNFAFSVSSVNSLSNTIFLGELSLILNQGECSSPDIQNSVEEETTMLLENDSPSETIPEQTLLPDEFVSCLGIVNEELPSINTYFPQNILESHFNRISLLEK
The series can be described thus: DB cells IL23R pSTAT3 cell assay (pStat3 HTRF). The format is cell-based. The procedure, abridged: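 DB cells (5×10E5/well, RPMI-1640 + 10% FBS) stimulated with 0.5 nM final IL-23 plus serially diluted test peptides for 30 min at 37 °C, 5% CO2. Phospho-STAT3 (Tyr705) in lysates measured by HTRF using a two-plate protocol.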

The nature of series [2]: in vitro. The conditions noted are these: human, pH 6.8; for half-life at 20 μM: 20% fecal homogenate (supernatant), anaerobic.
Series [3] is described as follows: in vitro. The conditions noted are these: cynomolgus monkey, pH 6.8; for half-life at 20 μM: 20% fecal homogenate (supernatant), anaerobic.
Experimental: Fecal homogenate (20%) was prepared by adding 4 mL of growth medium (1 liter contains 2 g peptone water powder, 2 g yeast extract, 0.1 g NaCl, 0.04 g KH2PO4, 0.01 g CaCl2·6H2O, 0.01 g MgSO4·7H2O, 2 mL Tween 80, 0.5 g bile salts, 0.5 g L-cysteine HCl, 2 g NaHCO3, and 10 μL Vitamin K, pH adjusted to 6.8, and sterilized by filtration through a 0.22 μm filter) to every gram of feces (pooled freshly collected human or cynomolgus monkey feces). The suspension was vortexed to break up large clumps, and homogenized using a bead mill homogenizer. Centrifuged the homogenate at 2800×g for 15 min. The supernatant is taken out and used for incubations. DMSO stocks (10 mM) were first prepared for the test compounds. Incubations were performed in an anaerobic chamber conditioned at 37° C. Aliquots of the DMSO solutions were dosed into 1.0 mL aliquots of 20% fecal homogenate, which are pre-warmed to 37° C. The final test compound concentration was 20 μM. At each timepoint (0, 20 min, 1, 3, 6, or 24 hours), 100 μL aliquot of each incubation mixture is taken out and added to separate tubes containing 300 μL of 50% acetonitrile/50% methanol and an internal standard to terminate the reaction. Samples were taken out of the anaerobic chamber and stored at 4° C. until the end of the experiment. After the final timepoint is sampled, the tubes were mixed and then centrifuged at 3,000 rpm for 10 minutes. Aliquots of the supernatant were removed, diluted 1:1 into distilled water containing 0.1% formic acid, and analyzed by LC/MS/MS. Percent remaining at each timepoint was calculated based on the peak area response ratio of test to compound to internal standard. Time 0 was set to 100%, and all later timepoints were calculated relative to time 0. Half-lives were calculated by fitting to a first-order exponential decay equation using Graphpad or Excel.
A short description of series [4]: in vitro. The conditions noted are these: both, SD, rat; for half-life at 20 μM: plasma (EDTA).
Where [5] appears, read: Table E3, DB cells, IL-23 0.5 nM, 30 minutes at 37° C., read-out: pStat3 HTRF (IC50).

As for `CC(=O)NCCCC[C@H](NC(=O)[C@](C)(CC(C)C)NC(=O)[C@H](Cc1ccc2ccccc2c1)NC(=O)[C@H](Cc1ccc(OCCN)cc1)NC(=O)[C@H]1NC(=O)[C@H](CCC(N)=O)NC(=O)[C@H](Cc2c[nH]c3c(C)cccc23)NC(=O)[C@H]([C@@H](C)O)NC(=O)[C@H](CC(N)=O)NC(=O)[C@@H](NC(C)=O)C(C)(C)SSC1(C)C)C(=O)N[C@H](CC(C)C)C(=O)NCCC(N)=O` [compound 210], the IC50 in series [1] (setting [5]) lay within 10 to 100 nM. The half-life at 20 μM in series [2] was more than 24 h; in series [3], more than 24 h; in series [4] it was less than 0.3 h.
Regarding `CC(=O)NCCCC[C@H](NC(=O)[C@](C)(CCCCN)NC(=O)[C@H](Cc1ccc2ccccc2c1)NC(=O)[C@H](Cc1ccc(OCCN)cc1)NC(=O)[C@H]1NC(=O)C(C)(C)NC(=O)[C@H](Cc2c[nH]c3c(C)cccc23)NC(=O)[C@H]([C@@H](C)O)NC(=O)[C@H](CC(N)=O)NC(=O)[C@@H](NC(C)=O)C(C)(C)SSC1(C)C)C(=O)N[C@@H](CC(N)=O)C(=O)NCCC(N)=O` [compound 241] (Ac-[Pen]NT[Trp(7-Me)][Aib][Pen][AEF][2Nal][αMeK]K(Ac)N[βAla]-NH2; disulfide 1-6), the IC50 in series [1] (setting [5]) fell in the range of 10 to 100 nM. For the same compound, the half-life at 20 μM is more than 24 h in series [2], 15 h in series [3] and more than 24 h in series [4].
Turning to `CC(=O)NCCCC[C@H](NC(=O)[C@](C)(CCCCN)NC(=O)[C@H](Cc1ccc2ccccc2c1)NC(=O)[C@H](Cc1ccc(OCCN)cc1)NC(=O)[C@H]1NC(=O)[C@H](CCCNC(N)=O)NC(=O)[C@H](Cc2c[nH]c3c(C)cccc23)NC(=O)[C@H]([C@@H](C)O)NC(=O)[C@H](CC(N)=O)NC(=O)[C@@H](NC(C)=O)C(C)(C)SSC1(C)C)C(=O)N[C@@H](CC(N)=O)C(=O)N[C@@H](Cc1ccc(O)cc1)C(N)=O` [compound 266] (Ac-[Pen]NT[Trp(7-Me)][Cit][Pen][AEF][2Nal][αMeK]K(Ac)NY-NH2; disulfide 1-6), in series [1] (setting [5]), the IC50 fell in the range of 1 to 10 nM. For the same compound, the half-life at 20 μM is 16 h in series [2], 7 h in series [3] and more than 24 h in series [4].
Taken in the same sequence, the figures for `CC(=O)NCCCC[C@@H]1NC(=O)[C@H](Cc2c[nH]c3c(C)cccc23)NC(=O)[C@H]([C@@H](C)O)NC(=O)[C@H](CC(N)=O)NC(=O)[C@@H](NC(C)=O)C(C)(C)SSC(C)(C)[C@@H](C(=O)N[C@@H](Cc2ccc(OCCN)cc2)C(=O)N[C@@H](Cc2ccc3ccccc3c2)C(=O)N[C@@](C)(CCCCN)C(=O)N[C@@H](CCCCNC(C)=O)C(=O)NCCC(=O)NCCC(N)=O)NC1=O` [compound 270] were 1 to 10 nM, more than 24 h, more than 24 h and more than 24 h.
For `CC(=O)NCCCC[C@H](NC(=O)[C@](C)(CCCCN)NC(=O)[C@H](Cc1ccc2ccccc2c1)NC(=O)[C@H](Cc1ccc(OCCN)cc1)NC(=O)[C@H]1NC(=O)[C@H](CCCNC(N)=O)NC(=O)[C@H](Cc2c[nH]c3c(C)cccc23)NC(=O)[C@H]([C@@H](C)O)NC(=O)[C@H](CC(N)=O)NC(=O)[C@@H](NC(C)=O)C(C)(C)SSC1(C)C)C(=O)N[C@@H](CC(N)=O)C(=O)N[C@H](C(N)=O)[C@@H](C)O` [compound 262] (Ac-[Pen]NT[Trp(7-Me)][Cit][Pen][AEF][2Nal][αMeK]K(Ac)NT-NH2; disulfide 1-6), the IC50 in series [1] (setting [5]) lay within 1 to 10 nM. For the same compound, the half-life at 20 μM in series [2] is 15 h; in series [3], 3 h; in series [4], more than 24 h.
Taken in the same sequence, the figures for `CC(=O)NCCCC[C@H](NC(=O)[C@](C)(CCCCN)NC(=O)[C@H](Cc1ccc2ccccc2c1)NC(=O)[C@H](Cc1ccc(OCCN)cc1)NC(=O)[C@H]1NC(=O)[C@H](CCC(N)=O)NC(=O)[C@H](Cc2c[nH]c3c(C)cccc23)NC(=O)[C@H]([C@@H](C)O)NC(=O)[C@H](CC(N)=O)NC(=O)[C@@H](NC(C)=O)C(C)(C)SSC1(C)C)C(=O)N[C@@H](CC(C)C)C(=O)NCCC(N)=O` [compound 269] were 1 to 10 nM, more than 24 h, more than 24 h and more than 24 h.
Taken in the same sequence, the figures for `CC(=O)NCCCC[C@H](NC(=O)[C@](C)(CCCCN)NC(=O)[C@H](Cc1ccc2ccccc2c1)NC(=O)[C@H](Cc1ccc(OCCN)cc1)NC(=O)[C@H]1NC(=O)[C@H](CCC(N)=O)NC(=O)[C@H](Cc2c[nH]c3cc(Cl)ccc23)NC(=O)[C@H]([C@@H](C)O)NC(=O)[C@H](CC(N)=O)NC(=O)[C@@H](NC(C)=O)C(C)(C)SSC1(C)C)C(=O)N[C@@H](CC(N)=O)C(=O)NCCC(N)=O` [compound 228] were 10 to 100 nM, more than 24 h, 13 h and more than 24 h.
For the compound `CC(=O)NCCCC[C@H](NC(=O)[C@](C)(CCCCN)NC(=O)[C@H](Cc1ccc2ccccc2c1)NC(=O)[C@H](Cc1ccc(OCCN)cc1)NC(=O)[C@H]1NC(=O)[C@H](CCC(N)=O)NC(=O)[C@H](Cc2c(C(C)(C)C)[nH]c3c(C(C)(C)C)cc(C(C)(C)C)cc23)NC(=O)[C@H]([C@@H](C)O)NC(=O)[C@H](CC(N)=O)NC(=O)[C@@H](NC(C)=O)C(C)(C)SSC1(C)C)C(=O)N[C@@H](CC(N)=O)C(=O)NCCC(N)=O` [compound 233], in series [1] (setting [5]), the IC50 was more than 100 nM. The half-life at 20 μM in series [2], in series [3] and in series [4] was more than 24 h in each case.
On to `CC(=O)NCCCC[C@@H]1NC(=O)[C@H](Cc2c[nH]c3c(C(C)C)cccc23)NC(=O)[C@H]([C@@H](C)O)NC(=O)[C@H](CC(N)=O)NC(=O)[C@@H](NC(C)=O)C(C)(C)SSC(C)(C)[C@@H](C(=O)N[C@@H](Cc2ccc(OCCN)cc2)C(=O)N[C@@H](Cc2ccc3ccccc3c2)C(=O)N[C@@](C)(CCCCN)C(=O)N[C@@H](CCCCNC(C)=O)C(=O)N[C@@H](CC(N)=O)C(=O)N[C@H](CC(C)C)C(N)=O)NC1=O` [compound 286] (Ac-[Pen]NT[X4]K(Ac)[Pen][AEF][2Nal][αMeK]K(Ac)N[dL]-NH2; disulfide 1-6), for which the half-maximal inhibitory concentration (IC50) in series [1] (setting [5]) was 1 to 10 nM. Besides, the half-life at 20 μM in series [2], in series [3] and in series [4] was more than 24 h in each case.
`CC(=O)N[C@@H]1C(=O)N[C@@H](CC(N)=O)C(=O)N[C@@H]([C@@H](C)O)C(=O)N[C@@H](Cc2c[nH]c3c(C)cccc23)C(=O)N[C@@H](CCC(N)=O)C(=O)N[C@H](C(=O)N[C@@H](Cc2ccc(OCCN)cc2)C(=O)N[C@@H](Cc2ccc3ccccc3c2)C(=O)N[C@@](C)(CC(C)C)C(=O)NCC(=O)N2CCC[C@H]2C(=O)NCCC(N)=O)C(C)(C)SSC1(C)C` [compound 219]: the IC50 in series [1] (setting [5]) was in the range of 10 to 100 nM. Moreover, the half-life at 20 μM was 16 h in series [2], 24 h in series [3] and 3 h in series [4].
For `CC(=O)NCCCC[C@H](NC(=O)[C@](C)(CCCCN)NC(=O)[C@H](Cc1ccc2ccccc2c1)NC(=O)[C@H](Cc1ccc(OCCN)cc1)NC(=O)[C@H]1NC(=O)[C@H](CCCNC(N)=O)NC(=O)[C@H](Cc2c[nH]c3c(C)cccc23)NC(=O)[C@H]([C@@H](C)O)NC(=O)[C@H](CC(N)=O)NC(=O)[C@@H](NC(C)=O)C(C)(C)SSC1(C)C)C(=O)N[C@@H](CC(N)=O)C(=O)N[C@H](CCCNC(=N)N)C(N)=O` [compound 256] (Ac-[Pen]NT[Trp(7-Me)][Cit][Pen][AEF][2Nal][αMeK]K(Ac)N[dR]-NH2; disulfide 1-6), the IC50 in series [1] (setting [5]) was less than 1 nM. Also, the half-life at 20 μM in series [2], in series [3] and in series [4] was more than 24 h throughout.
For the compound `CC(=O)NCCCC[C@H](NC(=O)[C@](C)(CC(C)C)NC(=O)[C@H](Cc1ccc2ccccc2c1)NC(=O)[C@H](Cc1ccc(OCCN)cc1)NC(=O)[C@H]1NC(=O)[C@H](CCC(N)=O)NC(=O)[C@H](Cc2c[nH]c3c(C)cccc23)NC(=O)[C@H]([C@@H](C)O)NC(=O)[C@H](CC(N)=O)NC(=O)[C@@H](NC(C)=O)C(C)(C)SSC1(C)C)C(=O)N[C@H](Cc1c[nH]cn1)C(=O)NCCC(N)=O` [compound 215], the IC50 in series [1] (setting [5]) was in the range of 1 to 10 nM. The figures for the half-life in series [2] (tissue homogenate), in series [3] (tissue homogenate) and in series [4] (plasma) were more than 24 h, more than 24 h and 2 h, respectively.
Turning to `CC(=O)NCCCC[C@@H]1NC(=O)[C@H](Cc2c[nH]c3c(C)cccc23)NC(=O)[C@H]([C@@H](C)O)NC(=O)[C@H](CC(N)=O)NC(=O)[C@@H](NC(C)=O)C(C)(C)SSC(C)(C)[C@@H](C(=O)N[C@@H](Cc2ccc(OCCN)cc2)C(=O)N[C@@H](Cc2ccc3ccccc3c2)C(=O)N[C@@](C)(CCCCN)C(=O)N[C@@H](CCCCNC(C)=O)C(=O)N[C@@H](CC(N)=O)C(=O)N[C@H](CC(N)=O)Cc2ccccc2)NC1=O` [compound 247], the IC50 in series [1] is 1 to 10 nM. Moreover, the half-life at 20 μM in series [2], in series [3] and in series [4] was more than 24 h throughout.

Broadly, the IC50 is the concentration needed to halve the response being measured. One may read the half-life as the time needed for the level to fall by half in the phase considered. Lower therefore signals fast loss.
